The target of one data set is T1, Vasopressin V1b receptor (Homo sapiens, UniProt P47901).
T1 sequence (P47901 whole entry): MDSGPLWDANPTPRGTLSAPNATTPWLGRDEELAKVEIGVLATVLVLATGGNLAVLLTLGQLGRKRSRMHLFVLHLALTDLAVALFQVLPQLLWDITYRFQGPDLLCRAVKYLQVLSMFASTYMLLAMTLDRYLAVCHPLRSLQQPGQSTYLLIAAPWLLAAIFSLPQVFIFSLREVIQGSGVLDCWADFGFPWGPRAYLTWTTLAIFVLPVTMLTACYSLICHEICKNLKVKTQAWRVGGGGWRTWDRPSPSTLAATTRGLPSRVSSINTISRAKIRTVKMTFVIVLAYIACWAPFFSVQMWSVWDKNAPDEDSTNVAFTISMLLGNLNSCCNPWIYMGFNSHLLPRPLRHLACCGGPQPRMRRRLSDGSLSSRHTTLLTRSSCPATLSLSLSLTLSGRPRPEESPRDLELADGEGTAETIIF
Put plainly: Binding affinity to human V1BR by competitive binding assay.

Data set [1] relates to Brain. The data set is described as follows: Drug uptake in Sprague-Dawley rat brain at 280 uCi up to 20 mins by PET analysis. Particulars: in vivo; call rule not given here. The class given is ADME, tissue-based.
Data set [2] in a line: Drug uptake in cynomolgus monkey choroid plexus at 5.5 mCi after 2 hrs in presence of unlabeled compound administered 45 mins before tracer challenge. The format is ADME, Macaca fascicularis. The conditions noted are these: in vivo.
For data set [3], the system named is Brain. Put plainly: Drug uptake in Sprague-Dawley rat brain at 280 uCi after 20 mins by PET analysis. The format is ADME, tissue-based. The conditions noted are these: in vivo.
Data set [4] can be described thus: Drug uptake in cynomolgus monkey middle cerebral artery of cerebral cortex at 5.5 mCi up to 15 mins. The format is ADME, tissue-based, Macaca fascicularis. The conditions noted are these: in vivo, 0.25 h.
Data set [5] in a line: Drug uptake in cynomolgus monkey choroid plexus at 5.5 mCi after 2 hrs in presence of unlabeled compound administered 30 mins before tracer challenge. The class given is ADME, Macaca fascicularis. The conditions noted are these: in vivo.
Data set [6] can be described thus: Lipophilicity, log P of the compound at pH 7.4. The class given is physicochemical. Particulars: buffer.
The target in data set [7] is Serotonin (5-HT) receptor. The data set is described as follows: Binding affinity to human 5HTB receptor by competitive binding assay. The class given is protein assay.
Data set [8] concerns the target 5-hydroxytryptamine receptor 2B (Homo sapiens, UniProt P41595). Put plainly: Binding affinity to human 5HT2B receptor by competitive binding assay.
For another data set, the target named is D(3) dopamine receptor (Homo sapiens, UniProt P35462). Put plainly: Binding affinity to human dopamine D3 receptor by competitive binding assay.
D(3) dopamine receptor, sequence (P35462 whole entry): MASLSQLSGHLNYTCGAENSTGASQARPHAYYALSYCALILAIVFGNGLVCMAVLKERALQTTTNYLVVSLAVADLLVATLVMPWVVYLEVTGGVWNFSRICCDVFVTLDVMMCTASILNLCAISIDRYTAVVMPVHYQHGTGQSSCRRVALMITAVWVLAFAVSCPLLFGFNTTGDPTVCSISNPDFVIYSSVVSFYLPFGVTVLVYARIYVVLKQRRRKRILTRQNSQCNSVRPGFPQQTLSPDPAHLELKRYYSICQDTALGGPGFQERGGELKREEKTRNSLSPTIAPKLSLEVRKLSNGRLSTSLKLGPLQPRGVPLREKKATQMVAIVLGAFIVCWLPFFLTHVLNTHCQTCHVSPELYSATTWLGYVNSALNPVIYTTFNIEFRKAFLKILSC
Data set [9] addresses T2, Muscarinic acetylcholine receptor M4 (Homo sapiens, UniProt P08173).
T2 sequence (P08173 whole entry): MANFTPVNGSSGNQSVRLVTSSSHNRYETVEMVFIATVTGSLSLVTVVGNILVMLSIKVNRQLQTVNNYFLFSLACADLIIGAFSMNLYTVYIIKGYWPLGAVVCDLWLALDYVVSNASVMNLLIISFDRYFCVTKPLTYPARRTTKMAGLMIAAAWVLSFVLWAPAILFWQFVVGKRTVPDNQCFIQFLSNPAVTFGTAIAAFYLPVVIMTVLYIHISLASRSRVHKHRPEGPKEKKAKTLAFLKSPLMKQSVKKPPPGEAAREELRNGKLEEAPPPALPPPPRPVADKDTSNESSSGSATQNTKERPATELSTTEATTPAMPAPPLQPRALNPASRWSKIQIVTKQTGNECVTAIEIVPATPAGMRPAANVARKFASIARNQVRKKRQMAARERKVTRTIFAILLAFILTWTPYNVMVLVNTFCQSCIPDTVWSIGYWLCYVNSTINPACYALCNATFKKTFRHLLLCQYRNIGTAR
The data set is described as follows: Binding affinity to human muscarinic M4 receptor by competitive binding assay.

In the next data set the target is T3, Oxytocin receptor (Homo sapiens, UniProt P30559).
T3 sequence (P30559 whole entry): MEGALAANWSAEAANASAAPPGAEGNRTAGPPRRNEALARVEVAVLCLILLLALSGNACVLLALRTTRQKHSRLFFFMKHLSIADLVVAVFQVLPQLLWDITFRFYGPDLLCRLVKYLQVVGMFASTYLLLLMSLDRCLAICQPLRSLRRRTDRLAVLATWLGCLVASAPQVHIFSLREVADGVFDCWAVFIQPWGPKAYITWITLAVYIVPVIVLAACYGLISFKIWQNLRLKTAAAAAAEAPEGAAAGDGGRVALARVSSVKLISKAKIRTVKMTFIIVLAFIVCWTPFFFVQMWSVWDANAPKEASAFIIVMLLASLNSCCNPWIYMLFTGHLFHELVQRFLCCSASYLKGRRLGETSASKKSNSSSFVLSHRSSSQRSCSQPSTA
The data set is described as follows: Binding affinity to human OTR by competitive binding assay.

The target of data set [10] is 5-hydroxytryptamine receptor 1B (Homo sapiens, UniProt P28222). Put plainly: Binding affinity to human 5HT1B receptor by competitive binding assay.
5-hydroxytryptamine receptor 1B, sequence (P28222 whole entry): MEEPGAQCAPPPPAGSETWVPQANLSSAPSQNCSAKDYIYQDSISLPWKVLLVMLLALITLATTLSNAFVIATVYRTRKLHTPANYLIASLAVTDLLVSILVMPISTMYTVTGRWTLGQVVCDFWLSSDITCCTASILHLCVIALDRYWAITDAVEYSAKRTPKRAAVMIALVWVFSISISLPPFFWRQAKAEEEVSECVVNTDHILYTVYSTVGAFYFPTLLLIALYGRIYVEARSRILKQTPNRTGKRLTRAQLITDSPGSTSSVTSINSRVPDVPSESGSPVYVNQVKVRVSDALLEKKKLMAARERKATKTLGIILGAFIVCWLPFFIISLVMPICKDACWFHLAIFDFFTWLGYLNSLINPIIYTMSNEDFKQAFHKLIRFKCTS
Data set [11] has as its target 5-hydroxytryptamine receptor 6 (Homo sapiens, UniProt P50406). Put plainly: Binding affinity to human 5HT6 receptor by competitive binding assay.
Data set [12] addresses T4, Alpha-1A adrenergic receptor (Homo sapiens, UniProt P35348).
T4 sequence (P35348 whole entry): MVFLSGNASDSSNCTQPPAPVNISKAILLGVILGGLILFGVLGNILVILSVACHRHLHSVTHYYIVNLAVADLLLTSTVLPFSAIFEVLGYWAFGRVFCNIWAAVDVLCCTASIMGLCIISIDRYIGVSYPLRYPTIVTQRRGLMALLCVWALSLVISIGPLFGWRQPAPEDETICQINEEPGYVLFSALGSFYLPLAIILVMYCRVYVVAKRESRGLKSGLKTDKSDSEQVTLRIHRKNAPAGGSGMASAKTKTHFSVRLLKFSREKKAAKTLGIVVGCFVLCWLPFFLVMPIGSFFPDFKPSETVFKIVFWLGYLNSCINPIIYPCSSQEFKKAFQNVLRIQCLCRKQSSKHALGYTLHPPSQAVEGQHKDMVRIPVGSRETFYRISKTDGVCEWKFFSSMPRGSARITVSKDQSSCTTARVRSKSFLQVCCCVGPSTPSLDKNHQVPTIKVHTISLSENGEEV
Put plainly: Binding affinity to human adrenergic alpha-1A receptor by competitive binding assay.

For another data set, the target named is Vasopressin V2 receptor (Homo sapiens, UniProt P30518). Put plainly: Binding affinity to human V2R by competitive binding assay.
Vasopressin V2 receptor, sequence (P30518 whole entry): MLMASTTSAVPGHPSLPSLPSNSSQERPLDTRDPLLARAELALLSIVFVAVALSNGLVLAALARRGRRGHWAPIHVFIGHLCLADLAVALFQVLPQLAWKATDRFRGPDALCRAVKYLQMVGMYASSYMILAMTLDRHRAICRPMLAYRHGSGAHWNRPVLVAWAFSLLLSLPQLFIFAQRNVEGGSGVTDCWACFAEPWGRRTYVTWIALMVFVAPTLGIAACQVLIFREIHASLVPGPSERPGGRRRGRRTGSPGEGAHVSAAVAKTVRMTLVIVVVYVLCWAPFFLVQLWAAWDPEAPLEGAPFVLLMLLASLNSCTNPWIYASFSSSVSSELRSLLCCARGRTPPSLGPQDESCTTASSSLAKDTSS
The target in the next data set is Vasopressin V1a receptor (Homo sapiens, UniProt P37288). The data set is described as follows: Binding affinity to human V1AR by competitive binding assay.
Vasopressin V1a receptor, sequence (P37288 whole entry): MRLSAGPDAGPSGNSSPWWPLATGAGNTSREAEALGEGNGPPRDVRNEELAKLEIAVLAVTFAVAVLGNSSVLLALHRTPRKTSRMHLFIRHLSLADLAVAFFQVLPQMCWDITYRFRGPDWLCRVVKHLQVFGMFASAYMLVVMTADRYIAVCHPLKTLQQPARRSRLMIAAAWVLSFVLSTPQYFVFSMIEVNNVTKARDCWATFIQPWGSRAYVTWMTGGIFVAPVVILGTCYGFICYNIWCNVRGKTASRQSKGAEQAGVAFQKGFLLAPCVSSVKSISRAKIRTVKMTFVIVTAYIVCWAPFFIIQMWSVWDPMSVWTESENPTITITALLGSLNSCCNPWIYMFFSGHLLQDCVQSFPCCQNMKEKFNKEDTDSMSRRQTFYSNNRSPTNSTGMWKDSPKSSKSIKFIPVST

Bounds are passed on as bounds.

One may read the Ki as a measure of affinity in units of concentration, obtained from inhibition or displacement. A word on the logD: it is the decadic logarithm of the distribution of all forms, ionised or not, between an organic phase and buffer at a given pH.

5-hydroxytryptamine receptor 6, sequence (P50406 whole entry): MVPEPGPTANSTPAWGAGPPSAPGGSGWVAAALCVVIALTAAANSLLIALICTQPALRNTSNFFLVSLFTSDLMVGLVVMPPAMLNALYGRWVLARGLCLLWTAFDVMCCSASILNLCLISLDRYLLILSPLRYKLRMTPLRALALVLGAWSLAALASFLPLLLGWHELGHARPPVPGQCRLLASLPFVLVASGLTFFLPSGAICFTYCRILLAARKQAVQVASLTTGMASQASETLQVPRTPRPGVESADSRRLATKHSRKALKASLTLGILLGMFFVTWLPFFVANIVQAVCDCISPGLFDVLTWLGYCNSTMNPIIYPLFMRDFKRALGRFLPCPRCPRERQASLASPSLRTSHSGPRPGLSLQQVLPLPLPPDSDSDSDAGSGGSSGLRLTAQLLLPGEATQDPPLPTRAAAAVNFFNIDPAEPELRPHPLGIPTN
5-hydroxytryptamine receptor 2B, sequence (P41595 whole entry): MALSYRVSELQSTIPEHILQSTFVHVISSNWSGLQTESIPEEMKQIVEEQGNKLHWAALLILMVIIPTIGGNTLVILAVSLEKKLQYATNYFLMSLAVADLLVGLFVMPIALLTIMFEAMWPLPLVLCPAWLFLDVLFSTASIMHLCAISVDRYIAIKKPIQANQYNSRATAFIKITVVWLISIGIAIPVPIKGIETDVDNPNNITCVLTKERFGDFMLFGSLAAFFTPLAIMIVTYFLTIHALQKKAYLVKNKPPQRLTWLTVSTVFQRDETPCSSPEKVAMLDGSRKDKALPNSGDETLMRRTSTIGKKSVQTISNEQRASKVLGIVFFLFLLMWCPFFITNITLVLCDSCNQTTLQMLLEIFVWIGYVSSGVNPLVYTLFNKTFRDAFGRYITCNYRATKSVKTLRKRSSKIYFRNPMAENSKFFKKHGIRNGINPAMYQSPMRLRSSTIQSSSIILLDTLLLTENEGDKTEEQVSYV

`CS(=O)(=O)N1CCC(Oc2ccc(CC(=O)N3CCC(N4C(=O)CCc5ccccc54)CC3)c(OCCF)c2)CC1` displayed a Ki at Vasopressin V1b receptor of over 10000 nM.

Turning to `O=C(Cc1ccc(OC2CCNCC2)cc1OCC[18F])N1CCC(N2C(=O)CCc3ccccc32)CC1`, the Drug uptake result in the data set on Brain [1] is recorded as “Active”; in data set [2] it was “Active”; in the data set with Brain [3], “Not Active”; in [4] it was “Active”; in data set [5], “Active”. The logD in data set [6] turned out to be 1.57.

Take `Cl.O=C(Cc1ccc(OC2CCNCC2)cc1OCCF)N1CCC(N2C(=O)CCc3ccccc32)CC1`: the inhibition constant Ki in data set [7] is 1270 nM; in [8] it was 500 nM; at D(3) dopamine receptor it was 6790 nM; in data set [9] it was 1270 nM; at Oxytocin receptor it was 15 nM; in [10], 700 nM. For the same compound, the Ki in [11] was 187 nM; at Vasopressin V1b receptor it was over 10000 nM; in data set [12], 80 nM; at Vasopressin V2 receptor it was 8700 nM; at Vasopressin V1a receptor it was 5600 nM.

(Values after ChEMBL document CHEMBL2424532, “Investigation of an F-18 oxytocin receptor selective ligand via PET imaging” (Bioorg Med Chem Lett, 2013).)
